Experiments:
D4 human receptors = molecular target: T1, D4 human receptors (Homo sapiens, UniProt P21917); test: D4 Radioligand Receptor Binding Assay ([3H] YM-09151-2, CHO cell membranes); conditions: compound 10^−7 M, singlicate, [3H] YM-09151-2 0.15-0.25 nM
T1 construct: expressed in transfected cells; host or cells: CHO cells
T1 sequence (P21917 1-419): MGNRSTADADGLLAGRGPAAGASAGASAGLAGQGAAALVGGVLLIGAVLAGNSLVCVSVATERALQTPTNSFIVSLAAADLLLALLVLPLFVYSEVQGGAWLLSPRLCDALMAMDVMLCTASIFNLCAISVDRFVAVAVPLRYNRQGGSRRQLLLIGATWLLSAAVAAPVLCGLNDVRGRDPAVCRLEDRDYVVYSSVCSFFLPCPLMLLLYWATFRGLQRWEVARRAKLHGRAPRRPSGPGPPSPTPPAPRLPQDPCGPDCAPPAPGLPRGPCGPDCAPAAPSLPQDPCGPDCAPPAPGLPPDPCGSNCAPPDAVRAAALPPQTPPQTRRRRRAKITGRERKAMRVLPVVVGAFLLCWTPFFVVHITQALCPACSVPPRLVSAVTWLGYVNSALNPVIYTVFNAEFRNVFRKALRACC
Procedure, shortened: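 Membranes from CHO cells expressing human D4 receptor incubated with [3H] YM-09151-2 (0.15-0.25 nM) and compound at one concentration (10^−7 M, singlicate) for 120 min at 27° C, then filtered.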

5-HT1A = molecular target: T2, 5-HT1A (Homo sapiens, UniProt P08908); test: 5-HT1 Functional Assay (cAMP) in CHO/5-HT1A cells; type: cell-based; parameters: expressed in transfected cells; host or cells: CHO/5-HT1A cells
T2 sequence (P08908 1-422): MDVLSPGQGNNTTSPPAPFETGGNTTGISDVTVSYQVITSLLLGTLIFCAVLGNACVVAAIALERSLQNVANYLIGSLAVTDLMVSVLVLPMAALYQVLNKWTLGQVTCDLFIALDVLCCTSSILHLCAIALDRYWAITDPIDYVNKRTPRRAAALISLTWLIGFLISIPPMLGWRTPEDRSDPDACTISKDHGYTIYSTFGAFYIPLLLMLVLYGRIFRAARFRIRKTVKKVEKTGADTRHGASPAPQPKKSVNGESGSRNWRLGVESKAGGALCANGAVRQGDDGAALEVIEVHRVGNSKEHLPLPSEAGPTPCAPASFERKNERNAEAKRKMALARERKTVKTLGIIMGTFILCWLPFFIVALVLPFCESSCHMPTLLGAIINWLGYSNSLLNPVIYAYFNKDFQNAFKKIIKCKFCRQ
Protocol: 5-HT1 Functional Assay (cAMP)
CHO/5-HT1A cells were random seeded at a density of about 200,000/well in 24 well plates the day prior to the experiment. On the day of the experiment, cells were pretreated for 15 minutes at 37° C. with 500 μM isobutylmethylxantine (IBMX) dissolved in culture medium without serum. Wells were then divided in different groups in duplicate as follows: control, 10 μM FSK, 10 μM FSK+1 μM 5-HT as positive standard and 10 μM FSK+10 μM of the different compound under evaluation. Sample solutions were added and incubated for additional 15 minutes at 37° C. After incubation, the medium was aspirated and the reaction stopped by adding 200 μl of lysis buffer. Plates were shaken for 5 minutes, then the lysate was removed and samples were stored at 4° C. until the day of the assay. For the cAMP evaluation, samples were properly diluted and the cAMP content was measured by an enzyme immunoassay system.

CCNC(=O)OCCn1c(=O)n(CCN2CCN(c3cccc(C)c3C)CC2)c2ccccc21 [Compound 215]
inhibition at 0.1 µM (D4 human receptors): 48% | inhibition at 10 µM (5-HT1A): 83%

Reference: patent publication US6521623B1, “N,N'-disubstituted benzimidazolone derivatives with affinity at the serotonin and dopamine receptors” (Boehringer Ingelheim Pharma KG, priority 2000, dated 2003)
